Experimental data published in patent US7250442B2, “Dihydroindol-2-one derivatives as steroid hormone nuclear receptor modulators” (Eli Lilly and Company, priority 2003, dated 2007).

Legend:
human MR = target: T1, human MR (Homo sapiens, UniProt P08235); assay: Mineralocorticoid Receptor Binding Assay ([3H]-aldosterone displacement); conditions: full length human MR expressed in Sf9 cells, 0.5 nM [3H]-aldosterone
T1 construct: The full length human MR gene is cloned from a human kidney or human brain cDNA library; made in house; host or cells: Sf9 insect cells (baculovirus, pAcHLT transfer vector)
T1 sequence (P08235 1-984): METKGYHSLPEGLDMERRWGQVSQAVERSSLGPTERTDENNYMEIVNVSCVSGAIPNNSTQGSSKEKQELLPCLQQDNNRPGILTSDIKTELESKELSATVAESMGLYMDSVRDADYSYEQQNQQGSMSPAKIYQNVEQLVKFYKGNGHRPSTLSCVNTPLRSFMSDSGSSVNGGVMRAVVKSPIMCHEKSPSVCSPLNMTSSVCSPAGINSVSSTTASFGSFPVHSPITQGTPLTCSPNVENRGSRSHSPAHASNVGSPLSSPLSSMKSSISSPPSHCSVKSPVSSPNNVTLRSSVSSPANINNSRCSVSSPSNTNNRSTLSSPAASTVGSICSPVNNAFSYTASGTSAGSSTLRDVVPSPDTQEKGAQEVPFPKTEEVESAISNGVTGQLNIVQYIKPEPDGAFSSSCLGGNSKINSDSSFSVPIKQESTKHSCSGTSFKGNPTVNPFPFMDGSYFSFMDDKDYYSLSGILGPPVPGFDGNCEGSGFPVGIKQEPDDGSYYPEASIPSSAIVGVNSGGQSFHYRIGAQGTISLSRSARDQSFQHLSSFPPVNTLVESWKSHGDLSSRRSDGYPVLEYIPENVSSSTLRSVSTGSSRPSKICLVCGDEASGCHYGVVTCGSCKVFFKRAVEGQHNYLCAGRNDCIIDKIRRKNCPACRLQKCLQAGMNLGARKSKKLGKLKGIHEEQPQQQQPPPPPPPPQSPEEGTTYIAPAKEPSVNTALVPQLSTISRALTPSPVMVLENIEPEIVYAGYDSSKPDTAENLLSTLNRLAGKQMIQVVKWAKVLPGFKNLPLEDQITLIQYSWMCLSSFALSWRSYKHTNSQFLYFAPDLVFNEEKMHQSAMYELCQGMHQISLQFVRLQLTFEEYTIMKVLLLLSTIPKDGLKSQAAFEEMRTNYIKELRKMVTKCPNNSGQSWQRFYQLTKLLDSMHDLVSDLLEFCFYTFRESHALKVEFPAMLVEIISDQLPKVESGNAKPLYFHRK
Procedure: Mineralocorticoid Receptor Binding Assay:
The full length human MR gene is cloned from a human kidney or human brain cDNA library. Briefly, using synthetic oligonucleotide primers (Eli Lilly and Company, Indianapolis) directed to nucleotides 20-54 and 3700-3666 of the human MR, polymerase chain reaction (PCR) is performed under standard conditions using a human cDNA library. The PCR reaction is performed in a final volume of 50 μl containing about 1 μl of a 50× stock solution of polymerase; about 1 μl of a 50× stock solution of dNTP; about 5 μl of an appropriate PCR buffer; about 1 μl of each primer; about 5 μl of a H. kidney or H. brain cDNA library; and about 36 μl of water. The reaction is allowed to denature for about 30 seconds at 95 degrees Celsius, anneal for about 30 seconds at 55 degrees Celsius, and extend for about 5 minutes at 72 degrees Celsius, the sequence being repeated for a total of about 35 cycles. The desired PCR product (3.68 Kb) is confirmed by gel electrophoresis and subsequently cut from the gel and stored at about −20 degrees Celsius until extraction. To extract the cDNA product from the agarose gel, the QIAEX II Gel Extraction protocol (QIAGEN, Inc.) is employed according to the manufacturer's instructions. Following extraction, the MR cDNA is cloned into an appropriate cloning vector (Zero Blunt TOPO PCR Cloning Kit (Invitrogen, Inc.) and a pAcHLT-baculovirus transfer vector (B.D./Pharminogen), then expressed in SF9 insect cells, essentially according to manufacturer's instructions. Sf9 cells are grown at a scale where gram quantity cell pellets are obtained for subsequent use in the MR binding assay. Harvested cell pellets are lysed by repeated freeze-thaw cycles (about 4) in a suitable lysis buffer then centrifuged at about 1×10^3 G (with the supernatant being saved for future assays).
MR binding assays are performed in a final total volume of about 250 μl containing about 20-25 μg of protein and 0.5 nM of [^3H]-aldosterone plus varying concentrations of test compound or vehicle. The assay binding buffer consists of 30 mM sodium molybdate, 30 mM of TRIS-HCl, 5 mM sodium phosphate, 5 mM sodium pyrophosphate, and about 10% glycerol, pH=7.5.
Briefly, assays are prepared at RT in 96-well Falcon 3072 plates, each well containing 210 μl of binding buffer, 10 μl of [^3H]-aldosterone, 10 μl of test compound/vehicle, and 20 μl of the resuspended receptor protein extract. Incubations are carried out at 4 degrees Celsius with shaking for about 16 hours. 200 μl aliquots of each incubation are filtered onto Millipore HA 0.45 micron 96-well filter plates, pre-moistened with cold 30 mM TRIS-HCl. The filter plates are suctioned dry with vacuum and immediately washed 3× with cold 30 mM TRIS-HCl. The plates are then punched out and the amount of receptor-ligand complex is determined by liquid scintillation counting using 4 ml of Ready Protein Plus™ liquid scintillation cocktail.
IC50 values (defined as the concentration of test compound required to decrease [^3H]-aldosterone binding by 50%) are then determined. Ki values for each respective test compound can then be calculated by application of the Cheng-Prusoff equation as described in Cheng et al., Relationship Between The Inhibition Constant (Ki) and The Concentration of Inhibitor Which Causes 50% Inhibition (IC50) of an Enzymatic Reaction, Biochem. Pharmacol., 22: 3099-31088; (1973).

[1] = in combination with standard CHF therapy, patients suffering from advanced CHF; cited from earlier work

Row | SMILES | Ki (human MR) [nM] | reduced cardiac related mortality [1] [%] | reduced frequency of hospitalization [1] [%]
1 | Cc1cc(C2(c3cc(C)c(O)c(C)c3)C(=O)N(Cc3cccnc3)c3ccccc32)cc(C)c1O [Example 103, 3,3-Bis-(4-hydroxy-3,5-dimethyl-phenyl)-1-pyridin-3-ylmethyl-1,3-dihydro-indol-2-one] | ≤ 500 | – | –
2 | C=CCN1C(=O)C(c2cc(C)c(O)c(C)c2)(c2cc(C)c(O)c(C)c2)c2ccccc21 [Example 104, 1-Allyl-3,3-bis-(4-hydroxy-3,5-dimethyl-phenyl)-1,3-dihydro-indol-2-one] | ≤ 500 | – | –
3 | Cc1cc(C2(c3cc(C)c(O)c(C)c3)C(=O)N(CC(=O)NC3CCCCC3)c3ccccc32)cc(C)c1O [Example 96, 2-[3,3-Bis-(4-hydroxy-3,5-dimethyl-phenyl)-2-oxo-2,3-dihydro-indol-1-yl]-N-cyclohexyl-acetamide] | ≤ 500 | – | –
4 | Cc1cc(C2(c3cc(C)c(O)c(C)c3)C(=O)N(CCc3ccccn3)c3ccccc32)cc(C)c1O [Example 122, 3,3-Bis-(4-hydroxy-3,5-dimethyl-phenyl)-1-(2-pyridin-2-yl-ethyl)-1,3-dihydro-indol-2-one] | ≤ 500 | – | –
5 | Cc1cc(C2(c3cc(C)c(O)c(C)c3)C(=O)N(Cc3ccc(C(=O)c4ccccc4)cc3)c3ccccc32)cc(C)c1O [Example 71, 1-(4-Benzoyl-benzyl)-3,3-bis-(4-hydroxy-3,5-dimethyl-phenyl)-1,3-dihydro-indol-2-one] | ≤ 500 | – | –
6 | CC(=O)S[C@@H]1CC2=CC(=O)CC[C@]2(C)[C@H]2CC[C@@]3(C)[C@@H](CC[C@@]34CCC(=O)O4)[C@H]12 [spironolactone] | – | 30 | 35
7 | Cc1cc(C2(c3cc(C)c(O)c(C)c3)C(=O)N(Cc3ccc4ccccc4c3)c3ccccc32)cc(C)c1O [Example 59, 3,3-Bis-(4-hydroxy-3,5-dimethyl-phenyl)-1-naphthalen-2-ylmethyl-1,3-dihydro-indol-2-one] | ≤ 500 | – | –
